{"source": "patent US10232035B2", "about": "“Conditionally replication deficient herpes virus and use thereof in vaccines” (THE REGENTS OF THE UNIVERSITY OF COLORADO, A BODY CORPORATE, priority 2012, dated 2019)", "test_system": "SVV mutant 2", "conditions": "decreasing amounts of TMP, FIG. 6", "source_text": "Replication of mutant 2 was monitored by GFP expression (FIG. 5). […] GFP expression was monitored using an inverted microscope."}
{"smiles": "COc1cc(Cc2cnc(N)nc2N)cc(OC)c1OC", "note": "[TMP, trimethoprim]", "values": [{"measurement": "lowest amount of TMP that can be used with SVV mutant 2", "value": 0.05, "unit": "µM"}]}
